# Data as given in PubChem BioAssay (NCI).
#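 Test compounds were applied to cells in 96-well plates for 48 hours at 5 doses. The concentration for 50% growth inhibition is given as GI50. TGI denotes the concentration required for complete inhibition of growth.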
# Tests used:
# Assay in all cases: inhibition of tumour cell growth, NCI panel, 48 h
# M14 melanoma = test system: M14 melanoma
# SW-620 colon = test system: SW-620 colon
# SK-MEL-5 melanoma = test system: SK-MEL-5 melanoma
# HCC-2998 colon = test system: HCC-2998 colon
# A498 renal = test system: A498 renal
# RXF 393 renal = test system: RXF 393 renal
# NCI-H522 lung = test system: NCI-H522 lung
# OVCAR-3 ovarian = test system: OVCAR-3 ovarian
# HOP-62 NSCLC = test system: HOP-62 NSCLC
# HL-60(TB) leukemia = test system: HL-60(TB) leukemia
# HCT-15 colon = test system: HCT-15 colon
# SF-295 CNS = test system: SF-295 CNS
# KM12 colon = test system: KM12 colon
# UACC-62 melanoma = test system: UACC-62 melanoma
# MDA-MB-435 = test system: MDA-MB-435
# U251 CNS = test system: U251 CNS
# UO-31 renal = test system: UO-31 renal
# RPMI-8226 leukemia = test system: RPMI-8226 leukemia
# BT-549 breast = test system: BT-549 breast
# EKVX NSCLC = test system: EKVX NSCLC
# CAKI-1 renal = test system: CAKI-1 renal
# SK-MEL-2 melanoma = test system: SK-MEL-2 melanoma
# A549 NSCLC = test system: A549 NSCLC
# MDA-MB-231 breast = test system: MDA-MB-231 breast
# SK-MEL-28 melanoma = test system: SK-MEL-28 melanoma
# SF-268 CNS = test system: SF-268 CNS
# UACC-257 melanoma = test system: UACC-257 melanoma
# SNB-75 CNS = test system: SNB-75 CNS
# OVCAR-4 ovarian = test system: OVCAR-4 ovarian
# IGROV1 ovarian = test system: IGROV1 ovarian
# CCRF-CEM leukemia = test system: CCRF-CEM leukemia
# LOX IMVI melanoma = test system: LOX IMVI melanoma
# NCI/ADR-RES ovarian = test system: NCI/ADR-RES ovarian
# COLO 205 colon = test system: COLO 205 colon
# PC-3 prostate = test system: PC-3 prostate
# SN12C renal = test system: SN12C renal
# MCF7 breast = test system: MCF7 breast
# OVCAR-8 ovarian = test system: OVCAR-8 ovarian
# DU-145 prostate = test system: DU-145 prostate
# 786-0 renal = test system: 786-0 renal
# NCI-H23 lung = test system: NCI-H23 lung
# SF-539 CNS = test system: SF-539 CNS
# NCI-H226 lung = test system: NCI-H226 lung
# TK-10 renal = test system: TK-10 renal
# T-47D breast = test system: T-47D breast
# SK-OV-3 ovarian = test system: SK-OV-3 ovarian
# MDA-MB-468 breast = test system: MDA-MB-468 breast
# SNB-19 CNS = test system: SNB-19 CNS
# HOP-92 NSCLC = test system: HOP-92 NSCLC
# HT29 colon = test system: HT29 colon
# HCT-116 colon = test system: HCT-116 colon
# MALME-3M melanoma = test system: MALME-3M melanoma
# HS 578T breast = test system: HS 578T breast
# ACHN renal = test system: ACHN renal
# NCI-H460 lung = test system: NCI-H460 lung
# OVCAR-5 ovarian = test system: OVCAR-5 ovarian
compound,measurement,setting,value
COc1cc2oc(-c3cccc(C(=O)Nc4ccc(Cl)cc4)c3)cc(=O)c2c(OCCN)c1OC,GI50,M14 melanoma,2.02 µM
same,TGI,M14 melanoma,4 µM
same,GI50,SW-620 colon,1.85 µM
same,TGI,SW-620 colon,3.46 µM
same,GI50,SK-MEL-5 melanoma,1.72 µM
same,TGI,SK-MEL-5 melanoma,3.33 µM
same,GI50,HCC-2998 colon,2.37 µM
same,TGI,HCC-2998 colon,6.58 µM
same,GI50,A498 renal,20.7 µM
same,TGI,A498 renal,40.4 µM
same,GI50,RXF 393 renal,3.23 µM
same,TGI,RXF 393 renal,12.7 µM
same,GI50,NCI-H522 lung,4.24 µM
same,TGI,NCI-H522 lung,19.8 µM
same,GI50,OVCAR-3 ovarian,3.77 µM
same,TGI,OVCAR-3 ovarian,11.7 µM
same,GI50,HOP-62 NSCLC,1.82 µM
same,TGI,HOP-62 NSCLC,4.19 µM
same,GI50,HL-60(TB) leukemia,2.38 µM
same,TGI,HL-60(TB) leukemia,5.9 µM
same,GI50,HCT-15 colon,2.82 µM
same,TGI,HCT-15 colon,8.51 µM
same,GI50,SF-295 CNS,1.8 µM
same,TGI,SF-295 CNS,3.69 µM
same,GI50,KM12 colon,6.84 µM
same,TGI,KM12 colon,23.9 µM
same,GI50,UACC-62 melanoma,9.27 µM
same,TGI,UACC-62 melanoma,22 µM
same,GI50,MDA-MB-435,1.82 µM
same,TGI,MDA-MB-435,3.65 µM
same,GI50,U251 CNS,1.79 µM
same,TGI,U251 CNS,3.27 µM
same,GI50,UO-31 renal,13 µM
same,TGI,UO-31 renal,25.7 µM
same,GI50,RPMI-8226 leukemia,2.3 µM
same,TGI,RPMI-8226 leukemia,5.5 µM
same,GI50,BT-549 breast,6.3 µM
same,TGI,BT-549 breast,25.7 µM
same,GI50,EKVX NSCLC,5.66 µM
same,TGI,EKVX NSCLC,18.6 µM
same,GI50,CAKI-1 renal,11.2 µM
same,TGI,CAKI-1 renal,23.6 µM
same,GI50,SK-MEL-2 melanoma,4.02 µM
same,TGI,SK-MEL-2 melanoma,16.2 µM
same,GI50,A549 NSCLC,4.06 µM
same,TGI,A549 NSCLC,20.7 µM
same,GI50,MDA-MB-231 breast,2.63 µM
same,TGI,MDA-MB-231 breast,7.92 µM
same,GI50,SK-MEL-28 melanoma,1.64 µM
same,TGI,SK-MEL-28 melanoma,3.03 µM
same,GI50,SF-268 CNS,11.8 µM
same,TGI,SF-268 CNS,29.7 µM
same,GI50,UACC-257 melanoma,1.73 µM
same,TGI,UACC-257 melanoma,3.41 µM
same,GI50,SNB-75 CNS,10.1 µM
same,TGI,SNB-75 CNS,24.1 µM
same,GI50,OVCAR-4 ovarian,4.38 µM
same,TGI,OVCAR-4 ovarian,16.8 µM
same,GI50,IGROV1 ovarian,4.18 µM
same,TGI,IGROV1 ovarian,18.1 µM
same,GI50,CCRF-CEM leukemia,2.16 µM
same,TGI,CCRF-CEM leukemia,4.84 µM
same,GI50,LOX IMVI melanoma,1.48 µM
same,TGI,LOX IMVI melanoma,2.8 µM
same,GI50,NCI/ADR-RES ovarian,13.6 µM
same,TGI,NCI/ADR-RES ovarian,30.9 µM
same,GI50,COLO 205 colon,3.03 µM
same,TGI,COLO 205 colon,12.6 µM
same,GI50,PC-3 prostate,2.89 µM
same,TGI,PC-3 prostate,19.8 µM
same,GI50,SN12C renal,6.12 µM
same,TGI,SN12C renal,19 µM
same,GI50,MCF7 breast,1.66 µM
same,TGI,MCF7 breast,3.14 µM
same,GI50,OVCAR-8 ovarian,4.09 µM
same,TGI,OVCAR-8 ovarian,19.4 µM
same,GI50,DU-145 prostate,5.98 µM
same,TGI,DU-145 prostate,18.3 µM
same,GI50,786-0 renal,2.04 µM
same,TGI,786-0 renal,4.14 µM
same,GI50,NCI-H23 lung,6.22 µM
same,TGI,NCI-H23 lung,19 µM
same,GI50,SF-539 CNS,3.13 µM
same,TGI,SF-539 CNS,10.2 µM
same,GI50,NCI-H226 lung,13.4 µM
same,TGI,NCI-H226 lung,30.3 µM
same,GI50,TK-10 renal,7.19 µM
same,TGI,TK-10 renal,21.8 µM
same,GI50,T-47D breast,3.74 µM
same,TGI,T-47D breast,23.4 µM
same,GI50,SK-OV-3 ovarian,11.8 µM
same,TGI,SK-OV-3 ovarian,31.9 µM
same,GI50,MDA-MB-468 breast,1.52 µM
same,TGI,MDA-MB-468 breast,3.03 µM
same,GI50,SNB-19 CNS,4.02 µM
same,TGI,SNB-19 CNS,13.9 µM
same,GI50,HOP-92 NSCLC,2.09 µM
same,TGI,HOP-92 NSCLC,16.5 µM
same,GI50,HT29 colon,2.28 µM
same,TGI,HT29 colon,5.62 µM
same,GI50,HCT-116 colon,2.39 µM
same,TGI,HCT-116 colon,5.84 µM
same,GI50,MALME-3M melanoma,1.8 µM
same,TGI,MALME-3M melanoma,3.35 µM
same,GI50,HS 578T breast,5.21 µM
same,TGI,HS 578T breast,25.3 µM
same,GI50,ACHN renal,10.6 µM
same,TGI,ACHN renal,22.4 µM
same,GI50,NCI-H460 lung,3.17 µM
same,TGI,NCI-H460 lung,10.5 µM
same,GI50,OVCAR-5 ovarian,5.14 µM
same,TGI,OVCAR-5 ovarian,18 µM
